Source: patent US6664106B1, “Production of primmorphs from disassociated cells of sponges and corals” (priority 1998, dated 2003)

Key:
Assay type in all cases: cell-based, Suberites domuncula
[1] = system: primmorphs from S. domuncula; assay: DNA synthesis in primmorphs by BrdU labelling; conditions: for percentage share of BrdU-positive cells (change in words): after addition as nutrient
Procedure: In order to determine the cell proliferation, the integration of BrdU [5-bromo-2′-deoxy-uridine] into the cellular DNA was measured using the “BrdU-iabeling and detection kit”, in accordance with the manufacturer's instructions.
For this purpose, the primmorphs are incubated, usually in 1 ml of the seawater/antibiotic solution, which also contains the BrdU labelling solution [final dilution: usually 1:1,000 (10 μM of BrdU)]. The incubation period is usually 12 hours; the incubation itself is carried out in culture chambers [e.g. the “culture chamber slides (Nunc)”—catalogue number 177453]. Subsequently, the cells are dissociated in CFMSW-E, washed three times in CFMSW-E and fixed/denatured in 70% ethanol [pH 2.0]. After that, the cells are incubated with anti-BrdU mouse monoclonal antibodies and the immune complex is made visible with anti-mouse Ig coupled to alkaline phosphatase and with the dye substrate nitro-blue tetrazolium salt. The cells are analysed under a light-optical microscope.
The primary primmorphs were obtained from individual cells from S. domuncula and used for the experiments after 21 days.
For this reason, the influence of a phorbol ester, phorbol 12-inyristate 13-acetate (PMA), on the percentage of BrdU-positive cells in primmorphs from S. domuncula was determined. The primmorphs were incubated for two days with different concentrations of PMA. After that, the DNA synthesis was determined by means of BrdU labelling as described above. The control, percentage of BrdU-positive cells in primmorphs without the test substance, was set at 100%.
FIG. 5. Influence of the phorbol ester phorbol 12-myristate 13-acetate (PMA) on the percentage share of BrdU-positive cells in primmorphs from S. domuncula. The primmorphs were incubated for two days with different concentrations of PMA. After this, DNA synthesis was determined by means of BrdU labelling. The control, percentage share of BrdU-positive cells among primmorphs without the test substance, was set at 100%. 300 cells were counted per batch.
FIG. 6. Influence of cadmium, concentrations between 0.1 ng/ml and 100 ng/ml were chosen, on the amount of the percentage share of BrdU-positive cells among primmorphs.

[2] = system: primmorphs from S. domuncula; assay: Size (diameter) of primmorphs after addition of nutrients; conditions: after addition as nutrient
[3] = system: primmorphs from S. domuncula; assay: Proliferation of cells in primmorphs (parallel batches, BrdU-positive binuclear stages); conditions: 0.01 to 1 μg PMA/ml
Procedure: In order to determine whether the cells do in fact divide after the DNA synthesis, the same batches were analysed which were also used to detect the incorporation of BrdU into cells from the primmorphs of S. domuncula. Those cells which were positive for BrdU and which were still in the binuclear stage after undergoing mitosis were counted.
In line with the above comments, it was also examined in parallel batches whether any change in proliferation occurred after incubation with the agent used here.

Molecule	percentage of BrdU-positive cells in primmorphs ([1]; cadmium at a concentration of 1 ng/ml and more, single exposure)	size of the primmorphs (change in words) [2]	percentage share of BrdU-positive cells (change in words) [1]	proliferation of cells in primmorphs [3]	percentage of BrdU-positive cells in primmorphs ([1]; 0.01 to 1 μg PMA/ml, incubated for two days, control without test substance set at 100%)
[Cd] [cadmium]	decline				
phosphatidylinositol		increase	rise		
CCCCCCCCCCCCCC(=O)O[C@@H]1[C@@H](C)[C@@]2(O)[C@@H](C=C(CO)C[C@]3(O)C(=O)C(C)=C[C@@H]23)[C@@H]2C(C)(C)[C@]12OC(C)=O [PMA, phorbol 12-myristate 13-acetate]				increase	distinct percentage increase
phosphatidyl serine		increase	rise		
